≈ marks a conversion by molar mass, not a printed value.
Experiments:
Bacillus subtilis [1] = experiment: Antibacterial activity against Bacillus subtilis relative to daptomycin; format: functional
Staphylococcus aureus [2] = experiment: Antibacterial activity against Staphylococcus aureus relative to daptomycin; format: functional
Bacillus subtilis [3] = experiment: Antibacterial activity against Bacillus subtilis ATCC 1046 incubated overnight by broth dilution method; format: functional
Bacillus subtilis [4] = experiment: Antibacterial activity against Bacillus subtilis PY79 after 18 hrs by two-fold serial dilution method relative to daptomycin; format: functional
Bacillus spizizenii = experiment: Antibacterial activity against Bacillus subtilis ATCC 6633 incubated overnight by broth dilution method; format: functional
Staphylococcus aureus [5] = experiment: Antibacterial activity against Staphylococcus aureus JKD6004 harboring WalR K208R mutant by microbroth dilution assay; format: functional
Staphylococcus aureus [6] = experiment: Antibacterial activity against vancomycin sensitive Staphylococcus aureus JKD6004 by microbroth dilution assay; format: functional
[7] = Protein binding in human plasma by UV/HPLC analysis; format: ADME, cell-free; details: read-out: PPB (converted)
[8] = Membrane permeabilization activity in DOPC/DOPG large unilamellar liposomes assessed as leakage of calcein at 30 ug/ml preincubated with CaCl2 for 1 hr prior to testing; format: ADME
[9] = Membrane permeabilization activity in DOPC/DOPG large unilamellar liposomes assessed as leakage of calcein at 16 ug/ml; format: ADME
Enterococcus faecium = experiment: Antibacterial activity against Enterococcus faecium 14 by broth microdilution assay relative to daptomycin; format: functional
Enterococcus faecalis = experiment: Antibacterial activity against Enterococcus faecalis 201 by broth microdilution assay relative to daptomycin; format: functional
Staphylococcus aureus [10] = experiment: Antibacterial activity against Staphylococcus aureus 42 by broth microdilution assay relative to daptomycin; format: functional

**Q.** For `CCCCCCCCCC(=O)N[C@@H](Cc1c[nH]c2ccccc12)C(=O)N[C@H](CC(N)=O)C(=O)N[C@@H](CC(=O)O)C(=O)N[C@@H]1C(=O)NCC(=O)N[C@@H](CCCN)C(=O)N[C@@H](CC(=O)O)C(=O)N[C@H](CC(N)=O)C(=O)N[C@@H](CC(=O)O)C(=O)NCC(=O)N[C@H](CO)C(=O)N[C@@H]([C@H](C)CC(=O)O)C(=O)N[C@@H]([C@@H](C)CC)C(=O)O[C@@H]1C`, which “fold change (FC)” value (Bacillus subtilis [1]) is on record?
**A.** 32

**Q.** Which “fold change (FC)” value (Bacillus subtilis [1]) does the source give for `CCCCCCCCCC(=O)N[C@@H](Cc1c[nH]c2ccccc12)C(=O)N[C@H](CC(N)=O)C(=O)N[C@@H](CC(=O)O)C(=O)N[C@@H]1C(=O)NCC(=O)N[C@@H](CCCN)C(=O)N[C@@H](CC(=O)O)C(=O)N[C@H](C)C(=O)N[C@@H](CC(=O)O)C(=O)NCC(=O)N[C@H](CC(N)=O)C(=O)N[C@@H]([C@H](C)CC(=O)O)C(=O)N[C@@H]([C@@H](C)CC)C(=O)O[C@@H]1C` here?
**A.** 8

**Q.** Which “fold change (FC)” value (Staphylococcus aureus [2]) does the source give for `CCCCCCCCCC(=O)N[C@@H](Cc1c[nH]c2ccccc12)C(=O)N[C@H](CC(N)=O)C(=O)N[C@@H](CC(=O)O)C(=O)N[C@H]1CNC(=O)[C@H](Cc2c[nH]c3ccccc23)NC(=O)[C@H](CCC(=O)O)NC(=O)[C@@H](CO)NC(=O)CNC(=O)[C@H](CC(=O)O)NC(=O)[C@@H](C)NC(=O)[C@H](CC(=O)O)NC(=O)[C@H](CCCN)NC(=O)CNC1=O` here?
**A.** 100

**Q.** With `C[C@H]1NC(=O)[C@H](CC(=O)O)NC(=O)[C@H](CCCN)NC(=O)CNC(=O)[C@@H](NC(=O)[C@H](CC(=O)O)NC(=O)[C@@H](CC(N)=O)NC(=O)[C@H](Cc2c[nH]c3ccccc23)NC(=O)CCCc2cc3cccc4c5cccc6cccc(c(c2)c34)c65)[C@@H](C)OC(=O)[C@H](CC(=O)c2ccccc2N)NC(=O)[C@H]([C@@H](C)CC(=O)O)NC(=O)[C@@H](CO)NC(=O)CNC(=O)[C@H](CC(=O)O)NC1=O` as the compound, how does the MIC (Bacillus subtilis [3]) read?
**A.** 3 µg/mL (≈ 1.68 µM)

**Q.** Which “fold change (FC)” value (Bacillus subtilis [4]) does the source give for `CCCCCCCCCC(=O)N[C@@H](Cc1c[nH]c2ccccc12)C(=O)N[C@H](CC(N)=O)C(=O)N[C@@H](CC(=O)O)C(=O)N[C@@H]1C(=O)NCC(=O)N[C@@H](CCCN)C(=O)N[C@@H](CC(=O)O)C(=O)N[C@H](C)C(=O)N[C@@H](CC(=O)O)C(=O)NCC(=O)N[C@H](CO)C(=O)N[C@@H]([C@H](C)CC(=O)O)C(=O)N[C@@H](Cc2ccc(O)cc2)C(=O)O[C@@H]1C` here?
**A.** 47

**Q.** For `CCCCCCCCCC(=O)N[C@@H](Cc1c[nH]c2ccccc12)C(=O)N[C@@H](CC(N)=O)C(=O)N[C@@H](CC(=O)O)C(=O)N[C@@H]1C(=O)NCC(=O)N[C@@H](CCCN)C(=O)N[C@@H](CC(=O)O)C(=O)N[C@H](C)C(=O)N[C@@H](CC(=O)O)C(=O)NCC(=O)N[C@H](CO)C(=O)N[C@@H](CCC(N)=O)C(=O)N[C@@H](CC(=O)c2ccccc2N)C(=O)O[C@@H]1C`, which “fold change (FC)” value (Bacillus subtilis [4]) is on record?
**A.** 10

**Q.** With `CCCCCCCCCC(=O)N[C@@H](Cc1c[nH]c2ccccc12)C(=O)N[C@H](CC(N)=O)C(=O)N[C@@H](CC(=O)O)C(=O)N[C@@H]1C(=O)NCC(=O)N[C@@H](CCCNC(=O)Cc2c(C)c3cc(S(=O)(=O)O)c(N)cc3oc2=O)C(=O)N[C@@H](CC(=O)O)C(=O)N[C@H](C)C(=O)N[C@@H](CC(=O)O)C(=O)NCC(=O)N[C@H](CO)C(=O)N[C@@H]([C@@H](C)CC(=O)O)C(=O)N[C@@H](CC(=O)c2ccccc2N)C(=O)O[C@@H]1C` as the compound, how does the MIC (Bacillus spizizenii) read?
**A.** 12 µg/mL (≈ 6.26 µM)

**Q.** For `CCCCCCCCCC(=O)N[C@@H](Cc1c[nH]c2ccccc12)C(=O)N[C@@H](CC(N)=O)C(=O)N[C@@H](CC(=O)O)C(=O)N[C@@H]1C(=O)NCC(=O)N[C@@H](CCCCN)C(=O)N[C@@H](CC(=O)O)C(=O)N[C@H](C)C(=O)N[C@@H](CC(=O)O)C(=O)NCC(=O)N[C@H](CO)C(=O)N[C@@H](CCC(=O)O)C(=O)N[C@@H](Cc2c[nH]c3ccccc23)C(=O)O[C@@H]1C`, which “fold change (FC)” value (Bacillus subtilis [4]) is on record?
**A.** 33

**Q.** Which results are given for `CCCCCCCCCC(=O)N[C@@H](Cc1c[nH]c2ccccc12)C(=O)N[C@@H](CC(N)=O)C(=O)N[C@@H](CC(=O)O)C(=O)N[C@@H]1C(=O)NCC(=O)N[C@@H](CCCN)C(=O)N[C@@H](CC(=O)O)C(=O)N[C@H](C)C(=O)N[C@@H](CC(=O)O)C(=O)NCC(=O)N[C@H](CO)C(=O)N[C@@H]([C@H](C)CC(=O)O)C(=O)N[C@@H](CC(=O)c2ccccc2N)C(=O)O[C@@H]1C` [DAPTOMYCIN]?
**A.** MIC (Staphylococcus aureus [5]): 2 µg/mL (≈ 1.23 µM); MIC (Staphylococcus aureus [6]): 0.5 µg/mL (≈ 0.309 µM)

**Q.** What does the source list for `CCCCCCCCCC(=O)N[C@@H](Cc1c[nH]c2ccccc12)C(=O)N[C@H](CC(N)=O)C(=O)N[C@@H](CC(=O)O)C(=O)N[C@@H]1C(=O)NCC(=O)N[C@@H](CCCN)C(=O)N[C@@H](CC(=O)O)C(=O)N[C@H](C)C(=O)N[C@@H](CC(=O)O)C(=O)NCC(=O)N[C@H](CO)C(=O)N[C@@H]([C@H](C)CC(=O)O)C(=O)N[C@@H](CC(=O)c2ccccc2N)C(=O)O[C@@H]1C` [DAPTOMYCIN]?
**A.** fraction unbound [7]: 0.1; Activity [8]: 100%; Activity [9]: < 10%

**Q.** With `CCCCCCCCCC(=O)N[C@@H](Cc1c[nH]c2ccccc12)C(=O)N[C@@H](CC(N)=O)C(=O)N[C@@H](CC(=O)O)C(=O)N[C@@H]1C(=O)NCC(=O)N[C@@H](CCCN)C(=O)N[C@@H](CC(=O)O)C(=O)N[C@H](C)C(=O)N[C@@H](CC(=O)O)C(=O)NCC(=O)N[C@H](CC(=O)O)C(=O)N[C@@H](CCC(=O)O)C(=O)N[C@@H](CC(=O)c2ccccc2N)C(=O)O[C@@H]1C` as the compound, how does the “fold change (FC)” value (Bacillus subtilis [4]) read?
**A.** >100

**Q.** Which “fold change (FC)” value (Staphylococcus aureus [2]) does the source give for `CCCCCCCCCC(=O)N[C@@H](Cc1c[nH]c2ccccc12)C(=O)N[C@H](CC(N)=O)C(=O)N[C@@H](CC(=O)O)C(=O)N[C@H]1CNC(=O)[C@H](CC(=O)c2ccccc2N)NC(=O)[C@H](CCC(=O)O)NC(=O)[C@@H](CO)NC(=O)CNC(=O)[C@H](CC(=O)O)NC(=O)[C@@H](C)NC(=O)[C@H](CC(=O)O)NC(=O)[C@H](CCCN)NC(=O)CNC1=O` here?
**A.** 200

**Q.** For `CCCCCCCCCC(=O)N[C@@H](Cc1c[nH]c2ccccc12)C(=O)N[C@H](CC(N)=O)C(=O)N[C@@H](CC(=O)O)C(=O)N[C@@H]1C(=O)NCC(=O)N[C@@H](CCCN)C(=O)N[C@@H](CC(=O)O)C(=O)N[C@H](CC(N)=O)C(=O)N[C@@H](CC(=O)O)C(=O)NCC(=O)N[C@H](CO)C(=O)N[C@@H]([C@H](C)CC(=O)O)C(=O)N[C@@H](CC(=O)c2ccccc2N)C(=O)O[C@@H]1C`, which “fold change (FC)” value (Bacillus subtilis [1]) is on record?
**A.** 16

**Q.** Which “fold change (FC)” value (Bacillus subtilis [1]) does the source give for `CCCCCCCCCC(=O)N[C@@H](Cc1c[nH]c2ccccc12)C(=O)N[C@H](CC(N)=O)C(=O)N[C@@H](CC(=O)O)C(=O)N[C@@H]1C(=O)NCC(=O)N[C@@H](CCCN)C(=O)N[C@@H](CC(=O)O)C(=O)N[C@H](CC(N)=O)C(=O)N[C@@H](CC(=O)O)C(=O)NCC(=O)N[C@H](CO)C(=O)N[C@@H](CCC(=O)O)C(=O)N[C@@H](CC(=O)c2ccccc2N)C(=O)O[C@@H]1C` here?
**A.** 256

**Q.** For `CCCCCCCCCC(=O)N[C@@H](Cc1c[nH]c2ccccc12)C(=O)N[C@H](CC(N)=O)C(=O)N[C@@H](CC(=O)O)C(=O)N[C@@H]1C(=O)NCC(=O)N[C@@H](CCCN)C(=O)N[C@@H](CC(=O)O)C(=O)N[C@H](C)C(=O)N[C@@H](CC(=O)O)C(=O)NCC(=O)N[C@H](CC(N)=O)C(=O)N[C@@H](CCC(=O)O)C(=O)N[C@@H](CC(=O)c2ccccc2N)C(=O)O[C@@H]1C`, which “fold change (FC)” value (Bacillus subtilis [1]) is on record?
**A.** 64

**Q.** With `CCCCCCCCCC(=O)N[C@@H](Cc1c[nH]c2ccccc12)C(=O)N[C@H](CC(N)=O)C(=O)N[C@@H](CC(=O)O)C(=O)N[C@@H]1C(=O)NCC(=O)N[C@@H](CCCNC(=N)CCCSCCC(=O)c2ccc3cc(N(C)C)ccc3c2)C(=O)N[C@@H](CC(=O)O)C(=O)N[C@H](C)C(=O)N[C@@H](CC(=O)O)C(=O)NCC(=O)N[C@H](CO)C(=O)N[C@@H]([C@@H](C)CC(=O)O)C(=O)N[C@@H](CC(=O)c2ccccc2N)C(=O)O[C@@H]1C` as the compound, how does the MIC (Bacillus spizizenii) read?
**A.** 10 µg/mL (≈ 5.14 µM)

**Q.** Which “fold change (FC)” value (Bacillus subtilis [4]) does the source give for `CCCCCCCCCC(=O)N[C@@H](Cc1c[nH]c2ccccc12)C(=O)N[C@@H](CC(N)=O)C(=O)N[C@@H](CC(N)=O)C(=O)N[C@@H]1C(=O)NCC(=O)N[C@@H](CCCN)C(=O)N[C@@H](CC(=O)O)C(=O)N[C@H](C)C(=O)N[C@@H](CC(=O)O)C(=O)NCC(=O)N[C@H](CO)C(=O)N[C@@H](CCC(=O)O)C(=O)N[C@@H](CC(=O)c2ccccc2N)C(=O)O[C@@H]1C` here?
**A.** 27

**Q.** Which MIC (Bacillus spizizenii) does the source give for `CCCCCCCCCC(=O)N[C@@H](Cc1c[nH]c2ccccc12)C(=O)N[C@H](CC(N)=O)C(=O)N[C@@H](CC(=O)O)C(=O)N[C@@H]1C(=O)NCC(=O)N[C@@H](CCCNc2ccc([N+](=O)[O-])c3nonc23)C(=O)N[C@@H](CC(=O)O)C(=O)N[C@H](C)C(=O)N[C@@H](CC(=O)O)C(=O)NCC(=O)N[C@H](CO)C(=O)N[C@@H]([C@@H](C)CC(=O)O)C(=O)N[C@@H](CC(=O)c2ccccc2N)C(=O)O[C@@H]1C` here?
**A.** 3 µg/mL (≈ 1.68 µM)

**Q.** Which “fold change (FC)” value (Bacillus subtilis [4]) does the source give for `CCCCCCCCCC(=O)N[C@@H](Cc1c[nH]c2ccccc12)C(=O)N[C@@H](CC(N)=O)C(=O)N[C@@H](CC(=O)O)C(=O)N[C@@H]1C(=O)NCC(=O)N[C@@H](CCCN)C(=O)N[C@@H](CC(=O)O)C(=O)N[C@H](C)C(=O)N[C@@H](CC(=O)O)C(=O)NCC(=O)N[C@H](CO)C(=O)N[C@@H](CCC(=O)O)C(=O)N[C@@H](Cc2c[nH]c3ccccc23)C(=O)O[C@@H]1C` here?
**A.** 33

**Q.** With `CCCCCCCCCC(=O)N[C@@H](Cc1c[nH]c2ccccc12)C(=O)NC(CC(N)=O)C(=O)N[C@@H](CC(=O)O)C(=O)N[C@@H]1C(=O)NCC(=O)N[C@@H](CCCN)C(=O)N[C@@H](CC(=O)O)C(=O)N[C@H](C)C(=O)N[C@@H](CC(=O)O)C(=O)NCC(=O)N[C@H](CO)C(=O)N[C@@H]([C@H](C)CC(=O)O)C(=O)N[C@@H](CC(=O)c2ccccc2N)C(=O)O[C@@H]1C` (single isomer, unassigned) as the compound, how does the “fold change (FC)” value (Enterococcus faecium) read?
**A.** 10

**Q.** And the “fold change (FC)” value (Enterococcus faecalis)?
**A.** 10

**Q.** What about the “fold change (FC)” value (Staphylococcus aureus [10]) of the same compound?
**A.** 10

From ChEMBL document CHEMBL3867421, “The action mechanism of daptomycin” (Bioorg Med Chem, 2016)
